Results on five compounds are retold here after patent US9701670B2, “Pyrazolyl-ureas as kinase inhibitors” (RESPIVERT LIMITED, priority 2013, dated 2017).

Series [1] deals with T1, p38 MAPKα isoform (MAPK14) (Homo sapiens (Human), UniProt Q16539). Description: p38 MAPKα enzyme inhibition (FRET, Z-LYTE), Method 1. It counts as biochemical. To be noted: Method 1 (Table 4a1).
Series [2] deals with T1, p38 MAPKα isoform (MAPK14). Description: p38 MAPKα enzyme inhibition (FRET, Z-LYTE), Method 2. The class given is biochemical. To be noted: Method 2, different laboratory (Table 4a2). As for the experimental part:
(§1) The enzyme inhibitory activities of compounds disclosed herein are determined by FRET using synthetic peptides labelled with both donor and acceptor fluorophores (Z-LYTE, Invitrogen Ltd., Paisley, UK).
The inhibitory activities of test compounds against the p38 MAPKα isoform (MAPK14: Invitrogen), are evaluated indirectly by determining the level of activation/phosphorylation of the down-stream molecule, MAPKAP-K2. The p38 MAPKα protein (80 ng/mL, 2.5 μL) is mixed with the test compound (2.5 μL of either 4 μg/mL, 0.4 μg/mL, 0.04 μg/mL or 0.004 μg/mL) for 2 hr at RT. […] The mixture is incubated for 1 hr at RT. Development reagent (protease, 5 μL) is added for 1 hr prior to detection in a fluorescence microplate reader (Varioskan® Flash, ThermoFisher Scientific).
(§2) In all cases, the site-specific protease cleaves non-phosphorylated peptide only and eliminates the FRET signal. Phosphorylation levels of each reaction are calculated using the ratio of coumarin emission (donor) over fluorescein emission (acceptor), for which high ratios indicate high phosphorylation and low ratios indicate low phosphorylation levels.

The next series concerns the target GSK 3α (Homo sapiens (Human), UniProt P49840). The series is described as follows: GSK 3α enzyme inhibition (FRET, Z-LYTE), Method 2. To be noted: Method 2, different laboratory (Table 4a2); read-out: IC50 Values for Enzyme Inhibition GSK3α. It counts as biochemical. As for the experimental part:
as §1
The inhibitory activities of compounds of the invention against the GSK 3α enzyme isoform (Invitrogen), are evaluated by determining the level of activation/phosphorylation of the target peptide. The GSK3-α protein (500 ng/mL, 2.5 μL) is mixed with the test compound (2.5 μL at either 4 μg/mL, 0.4 μg/mL, 0.04 μg/mL, or 0.004 μg/mL) for 2 hr at RT. The FRET peptide (8 μM, 2.5 μL), which is a phosphorylation target for GSK3α, and ATP (40 μM, 2.5 μL) are then added to the enzyme/compound mixture and the resulting mixture incubated for 1 hr. Development reagent (protease, 5 μL) is added for 1 hr prior to detection in a fluorescence microplate reader (Varioskan® Flash, ThermoFisher Scientific).
as §2

The subject of series [3] is Differentiated U937 cells. Description: (l) Cell viability: MTT assay. It counts as cell-based, human. To be noted: 1 μg/mL. The method, boiled down: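 Differentiated U937 cells were exposed to compound at 1 or 10 μg/mL either 4 h in 5% FCS RPMI1640 or 24 h in 10% FCS RPMI1640, then given MTT for 1 h, DMSO-solubilised and read at 550 nm. Percent viability loss versus 0.5% DMSO vehicle; apparent gains appear negative.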

The next series relates to Balb/c mice. The series is described as follows: (A) LPS-induced neutrophil accumulation in mice. To be noted: mice; for Neutrophil numbers in BAL: N = 8. It counts as in vivo, mouse. The procedure: […] At T=0, mice are placed into an exposure chamber and exposed to LPS (7.0 mL, 0.5 mg/mL solution in PBS) for 30 min). After a further 8 hr the animals are anesthetized, their tracheas cannulated and BALF extracted by infusing and then withdrawing from their lungs 1.0 mL of PBS via the tracheal catheter. Total and differential white cell counts in the BALF samples are measured using a Neubaur haemocytometer. Cytospin smears of the BALF samples are prepared by centrifugation at 200 rpm for 5 min at RT and stained using a DiffQuik stain system (Dade Behring). Cells are counted using oil immersion microscopy. Data for neutrophil numbers in BAL are shown as mean±S.E.M. (standard error of the mean). The percentage inhibition of neutrophil accumulation is calculated for each treatment relative to vehicle treatment.

A further series deals with mice. The series is described as follows: Mouse cigarette smoke model (macrophage and neutrophil accumulation in BALF). The settings on record: tobacco smoke, mice; for Cell numbers in BAL Macrophage / Cell numbers in BAL Neutrophil: mean ± SEM, N = 6. The class given is in vivo. The source says:
The result of treatment with compound Example (8) on macrophage and neutrophil accumulation in BALF in the mouse cigarette smoke model was investigated (Table 5).

Series [4] deals with β-catenin in d-U937 cells. The series is described as follows: (m) Accumulation of β catenin in d-U937 cells. It counts as cell-based, human. The procedure:
U937 cells, a human monocytic cell line, are differentiated into macrophage-type cells by incubation with PMA; (100 ng/mL) for between 48 to 72 hr. The cells are then incubated with either final concentrations of test compound or vehicle for 18 hr. The induction of β-catenin by the test compounds is stopped by replacing the media with 4% formaldehyde solution. Endogenous peroxide activity is neutralised by incubating with quenching buffer (100 μL, 0.1% sodium azide, 1% H2O2 in PBS with 0.05% Tween-20) for 20 min. The cells are washed with washing buffer (200 μL; PBS containing 0.05% Tween-20) and incubated with blocking solution (200 μL; 5% milk in PBS) for 1 hr, re-washed with washing buffer (200 μL) and then incubated overnight with anti-β-catenin antibody solution (50 μL) in 1% BSA/PBS (BD, Oxford, UK).
After washing with washing buffer (3×200 μL; PBS containing 0.05% Tween-20), cells are incubated with an HRP-conjugated secondary antibody solution (100 μL) in 1% BSA/PBS (Dako, Cambridge, UK) and the resultant signal is determined colourimetrically (OD: 450 nm with a reference wavelength of 655 nm) using TMB substrate (50 μL; R&D Systems, Abingdon, UK). This reaction is stopped by addition of 1N H2SO4 solution (50 μL). Cells are then washed with washing buffer and 2% crystal violet solution (50 μL) is applied for 30 min. After washing with washing buffer (3×200 μL), 1% SDS (100 μL) is added to each well and the plates are shaken lightly for 1 hr prior to measuring the absorbance at 595 nm (Varioskan® Flash, Thermo-Fisher Scientific).
The measured OD450-655 readings are corrected for cell number by dividing the OD450-655 by the OD595 readings. […] A signal less than 0.15 (15%) of that observed for the standard control is designated as “-ve”.

T1 sequence (Q16539 whole entry, canonical isoform): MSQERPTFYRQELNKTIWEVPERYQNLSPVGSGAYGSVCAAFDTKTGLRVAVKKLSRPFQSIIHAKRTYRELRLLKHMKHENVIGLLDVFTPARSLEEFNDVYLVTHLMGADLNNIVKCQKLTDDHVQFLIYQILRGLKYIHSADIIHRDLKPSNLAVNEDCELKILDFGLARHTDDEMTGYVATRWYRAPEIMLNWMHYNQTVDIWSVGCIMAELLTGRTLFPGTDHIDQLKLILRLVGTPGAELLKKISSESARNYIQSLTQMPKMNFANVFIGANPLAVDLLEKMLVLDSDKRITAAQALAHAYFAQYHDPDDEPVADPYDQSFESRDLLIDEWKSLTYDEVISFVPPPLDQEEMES
Chain of GSK 3α (P49840 whole entry): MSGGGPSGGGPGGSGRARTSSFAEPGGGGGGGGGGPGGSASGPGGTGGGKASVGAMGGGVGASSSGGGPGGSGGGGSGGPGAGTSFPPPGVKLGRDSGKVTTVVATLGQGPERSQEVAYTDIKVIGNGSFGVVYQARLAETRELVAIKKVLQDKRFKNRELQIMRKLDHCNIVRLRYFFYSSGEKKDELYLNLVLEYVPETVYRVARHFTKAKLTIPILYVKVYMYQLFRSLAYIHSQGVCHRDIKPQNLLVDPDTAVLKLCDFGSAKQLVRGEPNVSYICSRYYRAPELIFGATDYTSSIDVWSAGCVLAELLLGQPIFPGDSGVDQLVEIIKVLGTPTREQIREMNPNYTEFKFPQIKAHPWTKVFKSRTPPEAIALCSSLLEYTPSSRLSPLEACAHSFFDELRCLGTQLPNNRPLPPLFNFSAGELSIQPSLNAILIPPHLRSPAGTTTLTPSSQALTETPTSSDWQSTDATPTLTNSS

`COc1cc(Nc2nccc(Oc3ccc(NC(=O)Nc4cc(C(C)C)nn4-c4ccc(C)cc4)c4ccccc34)n2)cc(C(=O)NCCN2CCOCC2)c1` [Example 8, 3-((4-((4-(3-(3-Isopropyl-1-(p-tolyl)-1H-pyrazol-5-yl)ureido)naphthalen-1-yl)oxy)pyrimidin-2-yl)amino)-5-methoxy-N-(2-morpholinoethyl)benzamide]: the IC50 was 2 nM in series [1], 44 nM in series [2] and 13200 nM on GSK 3α. Moreover, the “Cell viability at time point in d-U937 cells 4 h” value in series [3] was “−ve (−ve and +ve indicate that the value is below and above respectively, the no significant effect threshold, defined as 30% inhibition at 1 μg/mL at the time point indicated.)”. In addition, the “Cell viability at time point in d-U937 cells 24 h” value in series [3] is “−ve (−ve and +ve indicate that the value is below and above respectively, the no significant effect threshold, defined as 30% inhibition at 1 μg/mL at the time point indicated.)”. In addition, the “% inhibition of neutrophil numbers in BAL” value turned out to be 40% with Balb/c mice (0.05 mg/mL, pre-dose time 2 hr); 59% with Balb/c mice (0.2 mg/mL, pre-dose time 2 hr); 43% in the series with Balb/c mice (0.2 mg/mL, pre-dose time 12 hr); 9% with Balb/c mice (0.2 mg/mL, pre-dose time 18 h); 77% in the series on Balb/c mice (1.0 mg/mL, pre-dose time 2 hr); 57% in the series on Balb/c mice (test substance at 0.2 mg/mL, dosed 8 hr pre-LPS challenge). Also, the “Neutrophil numbers in BAL” value in the series on Balb/c mice (0.05 mg/mL, pre-dose time 2 hr, mean +/− SEM) is listed as 9.6 ± 2.0 ×10^5/mL; with Balb/c mice (0.2 mg/mL, pre-dose time 2 hr, mean +/− SEM) it was 6.6 ± 1.4 ×10^5/mL; in the series with Balb/c mice (0.2 mg/mL, pre-dose time 12 hr, mean +/− SEM), 9.1 ± 1.7 ×10^5/mL; with Balb/c mice (0.2 mg/mL, pre-dose time 18 h, mean +/− SEM) it was 14.6 ± 2.5 ×10^5/mL; in the series on Balb/c mice (1.0 mg/mL, pre-dose time 2 hr, mean +/− SEM), 3.7 ± 0.61 ×10^5/mL; in the series on Balb/c mice (test substance at 0.2 mg/mL, dosed 8 hr pre-LPS challenge, +/−SEM), 6.1 ± 1.2 ×10^5/mL. For the same compound, the “% inhibition Macrophage in BAL” value stood at 29% in the series on mice (1.6 μg/mL), 50% with mice (8 μg/mL), 67% in the series with mice (40 μg/mL) and 83% in the series with mice (200 μg/mL). Moreover, the “% inhibition Neutrophil in BAL” value is 28% in the series with mice (1.6 μg/mL), 49% in the series with mice (8 μg/mL), 61% with mice (40 μg/mL) and 77% with mice (200 μg/mL). For the same compound, the “Cell numbers in BAL Macrophage” value in the series with mice (1.6 μg/mL) is on record as 14.0 ± 0.50 ×10^4/mL; with mice (8 μg/mL), 10.9 ± 0.42 ×10^4/mL; with mice (40 μg/mL), 8.3 ± 0.38 ×10^4/mL; with mice (200 μg/mL), 5.9 ± 0.31 ×10^4/mL. The “Cell numbers in BAL Neutrophil” value is 13.6 ± 0.51 ×10^4/mL in the series on mice (1.6 μg/mL), 10.2 ± 0.33 ×10^4/mL with mice (8 μg/mL), 8.2 ± 0.58 ×10^4/mL in the series on mice (40 μg/mL) and 5.6 ± 0.39 ×10^4/mL in the series on mice (200 μg/mL).

For the compound `COc1cc(C(=O)NCCN2CCOCC2)ccc1Nc1nccc(Oc2ccc(NC(=O)Nc3cc(C(C)C)nn3-c3ccc(C)cc3)c3ccccc23)n1` [Example 36, 4-((4-((4-(3-(3-isopropyl-1-(p-tolyl)-1H-pyrazol-5-yl)ureido)naphthalen-1-yl)oxy)pyrimidin-2-yl)amino)-3-methoxy-N-(2-morpholinoethyl)benzamide], the concentration for half-maximal inhibition (IC50) in series [1] was 13 nM; at GSK 3α, 13200 nM. Besides, in series [3], the “Cell viability at time point in d-U937 cells 4 h” value was “−ve (−ve and +ve indicate that the value is below and above respectively, the no significant effect threshold, defined as 30% inhibition at 1 μg/mL at the time point indicated.)”. Further, the “Cell viability at time point in d-U937 cells 24 h” value in series [3] was “−ve (−ve and +ve indicate that the value is below and above respectively, the no significant effect threshold, defined as 30% inhibition at 1 μg/mL at the time point indicated.)”.

In series [1], `COc1cc(Nc2nccc(Oc3ccc(NC(=O)Nc4cc(C5CC5)nn4-c4ccc(C)cc4)c4ccccc34)n2)cc(C(=O)NCCN2CCOCC2)c1` [Example 50, 3-((4-((4-(3-(3-cyclopropyl-1-(p-tolyl)-1H-pyrazol-5-yl)ureido)naphthalen-1-yl)oxy)pyrimidin-2-yl)amino)-5-methoxy-N-(2-morpholinoethyl)benzamide] had an IC50 of 2 nM. The IC50 on GSK 3α was found to be 13300 nM. Besides, in series [3], the “Cell viability at time point in d-U937 cells 4 h” value was “−ve (−ve and +ve indicate that the value is below and above respectively, the no significant effect threshold, defined as 30% inhibition at 1 μg/mL at the time point indicated.)”; the “Cell viability at time point in d-U937 cells 24 h” value is “−ve (−ve and +ve indicate that the value is below and above respectively, the no significant effect threshold, defined as 30% inhibition at 1 μg/mL at the time point indicated.)”.

In the case of `C#Cc1cc(Nc2nccc(Oc3ccc(NC(=O)Nc4cc(C(F)(F)C(F)(F)F)nn4-c4ccc(C)cc4)c4ccccc34)n2)cc(C(=O)NCCN2CCOCC2)c1` [Example 74, 3-Ethynyl-N-(2-morpholinoethyl)-5-((4-((4-(3-(3-(perfluoroethyl)-1-(p-tolyl)-1H-pyrazol-5-yl)ureido)naphthalen-1-yl)oxy)pyrimidin-2-yl)amino)benzamide], the half-maximal inhibitory concentration (IC50) in series [2] came to 1210 nM; at GSK 3α, 12100 nM.

`C#Cc1cc(Nc2nccc(Oc3ccc(NC(=O)Nc4cc(C(C)(C)C)nn4-c4ccc(OC)cc4)c4ccccc34)n2)cc(C(=O)NCCOC)c1` [Example 84, 3-((4-((4-(3-(3-(tert-Butyl)-1-(4-methoxyphenyl)-1H-pyrazol-5-yl)ureido)-naphthalen-1-yl)oxy)pyrimidin-2-yl)amino)-5-ethynyl-N-(2-methoxyethyl)benzamide]: the 50% inhibitory concentration (IC50) is 105 nM in series [2] and 13800 nM at GSK 3α. The “% β-catenin induction” value is 3% in series [4] (1 μg/mL test compound), 3% in series [4] (5 μg/mL test compound) and 5% in series [4] (10 μg/mL test compound).
